“Also recorded” adds a separate entry of the source.
Columns and labels:
Format in all cases: cell-based
[1] = tested on: Nrf2 nuclear translocation in HepG2 cells; test: Western blot of nuclear Nrf2 (Nrf2 nuclear translocation) in HepG2 cells; details: 24 h
Description: (§1) Cells are treated with test compounds at designated concentrations and are harvested at 24 h. Sixty microgram of cell-lysate protein and 35 ug of nuclear extract are loaded into each lane, and electrophoresed through a 4-20% gradient SDS-PAGE gel (Bio-Rad, Mississauga, ON, Canada), and transferred onto a nitrocellulose membrane. The membrane is incubated with primary antibody and subsequently incubated with HRP-conjugated secondary antibody. Finally, ECL detection is carried out, and the results were recorded on X-ray film by autophotography.
(§2) The 23 top-score molecules from the first round of virtual screening are initially tested in the cell-based ARE-driven luciferase assay. Specifically, HepG2 cell line are transfected with ARE-driven pGL3 luciferase vector and then exposed to individual test compounds at 10, 50 μM. Classical Nrf2 inducers EQ and SFN were used as the positive controls. […] To examine the effect of these active compounds on Nrf2 nuclear translocation, Western blot analysis is used to measure the nuclear level of Nrf2 after cells are exposed to these compounds.

[2] = tested on: ARE-driven luciferase activity (Nrf2) in HepG2 cells; test: ARE-driven luciferase assay in HepG2 cells; details: test compounds at 10, 50 μM, 24 h
Description: (§3) One representative ARE (A2-ARE) from GSTA2 is used in this work, and A2-ARE are cloned into the KpnI and MluI sites of pGL3-promoter vector, which contains a heterologous SV40 promoter and a firefly luciferase reporter gene. Cells are seeded at 1×10^5 per well using 24-well plate, grown overnight before being transfected transfected with pGL3 and other designated constructs using LipofectAMINE (Invitrogen) for 5 h. The plasmid pRL, containing a renilla reniformis luciferase reporter gene, is cotransfected as internal control to correct transfection efficiency. After transfection, cells are treated with test compounds at designated concentrations for 24 h prior to harvesting. The cells are then washed twice with phosphate-buffered saline and harvested in 100 uL of 1× passive lysis buffer (Promega, Madison, Wis., USA). The luciferase activities are analyzed in 20-uL cell extracts with the Dual luciferase Assay™ kit (Promega) on a Lumat LB 9507 luminometer (Berthold Technologies, Oak Ridge, Tenn., USA). The related luciferase activities are expressed as a ratio of the pGL3 reporter activity to that of the control plasmid pRL. The fold of induction is expressed as ratio of induction from the treated cells versus the untreated. Values represent measurements from three independent experiments performed in triplicate and are presented as the mean±SEM.
as §2

[3] = tested on: γ-glutamylcysteine synthetase (GCS), a Nrf2-regulated protein, in HepG2 cells; test: Western blot of γ-glutamylcysteine synthetase (GCS) in HepG2 whole cell extracts; details: 24 h; for induction of GCS: whole cell protein extracts
Description: FIG. 3B illustrates endogenous γ-glutamylcysteine synthetase (GCS), a Nrf2-regulated protein, in whole cell protein extracts, detected by Western blotting. HepG2 cells were treated with EQ, SFN, DMSO, BM10, BM31 and BM40 at designated concentrations for 24 h.
as §1
Nrf2 is a master transcription factor regulating multiple ARE-regulated antioxidant and detoxifying enzymes, such as GCS, glutathione S-transferase (GST), NAD(P)H quinone oxidoreductase-1 (NQO1), and UDP glucuronosyltransferase (UGT), etc. The effects of our lead compounds on GCS are examined.

MCF-7 cells [4] = test: MCF-7 cell viability (MTT, 72 h); details: dose range 10 nM to 10 μM
Description: FIG. 9 illustrates MCF-7 cell survival curves for BM10, BM31, BM40 and SFN. MCF-7 cells were treated with test compounds at designated concentrations for 72 hours. Viable cells were evaluated by MTT assays. Experiments were performed in triplicate and repeated twice.
(§4) Cells are seeded at 4×10^3 per well using 96-well plate, grown overnight before being treated with test compounds for 72 h. Viable cells are measured by MTT assays. To evaluate the ability of test compounds in protecting MCF-7 cells from the damage of B[a]P, MCF-7 cells are seeded at 2×10^3 per well using 96-well plate, grown overnight before being treated with test compounds at designed concentration for 48 h. Next, cells are treated with 160 nM B[a]P in the presence of test compound for another 72 h. The viable cells are measured using MTT assays. Experiments are performed in triplicate and repeated twice.

MCF-7 cells [5] = test: Protection of MCF-7 cells from cytotoxic damage of B[a]P (MTT); details: low dose range 50 nM to 200 nM, 48 h pre-incubation, then 160 nM B[a]P + compound 72 h
Description: as §4
To test the capability of BM compounds in protecting against the cytotoxic effect of B[a]P, cellular assays using MCF-7 cells are performed. Incubation of MCF-7 cells with various concentrations of BM31 for 48 hours is followed by incubation with 160 nM B[a]P+the BM31 for 72 hours. MTT assays are performed to evaluate the protection effect of the BM31. DMSO without B[a]P was used as a control.

[6] = tested on: Keap1 mutants (C257S, C273S, C288S, C297S) / ARE-driven luciferase in 293T cells; test: ARE-driven luciferase assay in 293T cells co-transfected with Nrf2 and Keap1 IVR cysteine mutants; details: for effect of Keap1 C273S and C288S mutations on activation of ARE-driven luciferase activities / effect of Keap1 C297S mutant on potency in activating ARE-driven luciferase activities: 293T cells
Description: as §3
Keap1 is a multi-domain protein, in which the IVR domain contains 4 cysteine residues, C257, C273, C288 and C297. The known Nrf2 inducers may interact with these cysteine residues in the IVR domain, resulting in conformational change of Keap1 and ultimately activating Nrf2. To investigate the role of these active cysteine residues in the Nrf2-inducing activity of BM31, 4 Keap1 mutants (C257S, C273S, C288S and C297S) are tested. BM31 is selected for this and further investigation because the dose-response is consistent for its capability in inducing Nrf2 nuclear translocation and induction of enzyme GCS (FIG. 3). Co-transfection experiments to investigate the effects of Keap1 IVR cysteine mutants on ARE-driven luciferase activities are performed. Specifically, 293T cells are co-transfected with ARE-driven pGL3 luciferase report vector, Keap1 vector with and without the Nrf2 expression vector (FIG. 4). After transfection, the cells are exposed to BM31 at 50 μM for 16 h before harvest. The cell lysates are used for measurement of ARE-driven luciferase activities. […] Our conclusion is that BM31 targets the binding site around C297 in the IVR domain of Keap1, and mutation of residue C297 partially abolishes the Nrf2-inducing effect of BM31.

Nrf2/Keap1 complex = molecular target: T1, Nrf2/Keap1 complex (Homo sapiens, UniProt Q14145); test: Co-IP of Keap1 and Nrf2 in co-transfected 293T cells; details: 293T cells co-transfected with Nrf2 and Keap1; 24 h; BM31 50 μM, SFN 5 μM
T1 construct: expressed in transfected cells; host or cells: 293T
Description: FIG. 5 illustrates 293T cell lysates immunoprecipitated with Keap1 antibody and the eluted proteins were immunoblotted with Nrf2 antibody. Lane 1: Nrf2 transfection; Lanes 2, 3, 4: Nrf2 and Keap1 co-transfection. Lanes 2, 3, 4: treated with DMSO, BM31 (50 μM) and SFN (5 μM), respectively.
To study the effect of BM31 on the interaction of Keap1 and Nrf2, Co-IP experiments are performed. 293T cells are successfully transfected and achieved high Nrf2 expression in this cell line. In the co-IP experiments, 293T cells are co-transfected with Nrf2 and Keap1 expression vectors. After transfection, the cells are treated with SFN and BM31 for 24 h before harvesting. The cell lysates are used for IP with Keap1 antibody. The eluted proteins are immunoblotted with Nrf2 antibody. […] For example, arsenic induces the Nrf2-dependent response through markedly enhancing the interaction between Keap1 and Cul3, subunits of the E3 ubiquitin ligase for Nrf2, which leads to impaired dynamic assembly/disassembly of the E3 ubiquitin ligase and thus decreases its ligase activity, resulting in inhibition of Nrf2 ubiquitination and degradation. Our further work will determine whether BM31 induces Nrf2 via a mechanism similar to that of arsenic.

T1 sequence (Q14145 whole entry): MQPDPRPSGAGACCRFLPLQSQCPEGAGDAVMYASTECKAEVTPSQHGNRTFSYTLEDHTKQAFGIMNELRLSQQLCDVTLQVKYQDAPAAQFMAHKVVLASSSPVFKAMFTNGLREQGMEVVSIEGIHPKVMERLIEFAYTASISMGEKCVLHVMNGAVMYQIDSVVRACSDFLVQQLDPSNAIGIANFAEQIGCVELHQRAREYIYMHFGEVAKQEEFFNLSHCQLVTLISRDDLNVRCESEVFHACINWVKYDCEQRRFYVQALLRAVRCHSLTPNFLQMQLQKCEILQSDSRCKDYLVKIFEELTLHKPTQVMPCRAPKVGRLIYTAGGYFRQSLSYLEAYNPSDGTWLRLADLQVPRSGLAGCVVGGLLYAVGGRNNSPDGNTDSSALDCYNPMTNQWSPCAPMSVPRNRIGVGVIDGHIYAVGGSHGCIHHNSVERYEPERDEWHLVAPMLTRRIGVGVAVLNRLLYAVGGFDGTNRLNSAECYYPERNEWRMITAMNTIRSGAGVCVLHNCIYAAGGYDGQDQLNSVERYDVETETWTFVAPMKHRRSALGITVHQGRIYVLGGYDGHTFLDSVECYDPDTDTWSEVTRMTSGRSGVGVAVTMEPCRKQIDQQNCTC
T1 sequence (Q16236 whole entry partner): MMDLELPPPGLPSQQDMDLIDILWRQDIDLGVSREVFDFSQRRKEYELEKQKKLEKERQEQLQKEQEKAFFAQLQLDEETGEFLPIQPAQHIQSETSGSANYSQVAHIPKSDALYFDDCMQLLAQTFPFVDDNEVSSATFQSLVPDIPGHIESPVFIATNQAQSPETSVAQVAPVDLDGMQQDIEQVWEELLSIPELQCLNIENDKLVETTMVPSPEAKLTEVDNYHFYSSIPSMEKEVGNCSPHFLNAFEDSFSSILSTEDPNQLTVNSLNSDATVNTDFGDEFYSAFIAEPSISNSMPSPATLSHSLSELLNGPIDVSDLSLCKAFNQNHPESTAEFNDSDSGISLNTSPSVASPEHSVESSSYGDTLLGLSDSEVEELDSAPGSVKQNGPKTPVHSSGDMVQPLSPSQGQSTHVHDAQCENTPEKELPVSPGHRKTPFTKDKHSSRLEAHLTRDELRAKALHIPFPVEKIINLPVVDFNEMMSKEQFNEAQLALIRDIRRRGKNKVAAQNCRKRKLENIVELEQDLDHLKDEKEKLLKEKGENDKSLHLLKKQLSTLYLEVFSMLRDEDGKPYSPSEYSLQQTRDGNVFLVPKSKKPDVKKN

SMILES	induction of Nrf2 nuclear translocation (nuclear Nrf2 by Western blot) [1]	induction of ARE-driven luciferase activities [2]	induction of GCS [3]	potency in elevating nuclear Nrf2 compared with SFN [1]	cytotoxic effects on proliferation of MCF-7 cells (MCF-7 cells [4])	other results
COc1ccc2nc3cc(Cl)ccc3c(C#N)c2c1 [BM4]	modest activity; also recorded: triggered Nrf2 nuclear translocation	potently induce	–	–	–	–
O=C1C[C@@H](c2ccccc2)Oc2cc(O)cc(O)c21 [BM5]	triggered Nrf2 nuclear translocation	–	–	–	–	–
Nc1nc(N)c2ncn(Cc3ccccc3)c2n1 [BM6]	modest activity; also recorded: triggered Nrf2 nuclear translocation	potently induce	–	–	–	–
Nc1nc(S)c2ncn(C3CCCCC3)c2n1 [BM9]	modest activity; also recorded: triggered Nrf2 nuclear translocation	–	–	–	–	–
Ic1ncnc2c1ncn2[C@H]1CCCS1 [BM10]	most potent; also recorded: triggered Nrf2 nuclear translocation	–	modest potency; also recorded: induced expression	comparable to that of SFN	do not have cytotoxic effects	–
Cc1n[nH]c2c(Cc3ccco3)nnc(O)c12 [BM18]	modest activity; also recorded: triggered Nrf2 nuclear translocation	potently induce	–	–	–	–
Cc1nnc(Cc2ccco2)c2[nH]nc(C)c12 [BM19]	triggered Nrf2 nuclear translocation	–	–	–	–	–
Clc1ncnc2c1ncn2[C@H]1CCCS1 [BM31]	potent Nrf2 inducers; also recorded: triggered Nrf2 nuclear translocation	–	induced expression	comparable to that of SFN	do not have cytotoxic effects	potency in inducing GCS compared with SFN and EQ [3]: comparable to that of SFN and EQ; protection of MCF-7 cells from cytotoxic damage of B[a]P (MCF-7 cells [5]): significant protection; also recorded: provides protections; effect of Keap1 C273S and C288S mutations on activation of ARE-driven luciferase activities [6]: do not completely abolish; effect of Keap1 C297S mutant on potency in activating ARE-driven luciferase activities [6]: limits the potency; also recorded: abolished the Nrf2 induction activity; induction of ARE-driven luciferase activities with C257S, C273S or C288S mutant Keap1 ([6]; 293T cells co-transfected with ARE-pGL3, Nrf2 and mutant Keap1, BM31 50 μM, 16 h): potently induces; effect on Nrf2/Keap1 complex (Keap1 IP, Nrf2 immunoblot) (Nrf2/Keap1 complex): increases the Nrf2/Keap1 complex
O=C(c1ccccc1)C1COc2ccccc2C1O (stereo not shown) [BM40]	potent Nrf2 inducers; also recorded: triggered Nrf2 nuclear translocation	–	induced expression	comparable to that of SFN	do not have cytotoxic effects	potency in inducing GCS compared with SFN and EQ [3]: comparable to that of SFN and EQ
C[S+]([O-])CCCCN=C=S (stereo not shown) [SFN, sulforaphane, reference compound]	–	–	–	–	–	effect of Keap1 C273S and C288S mutations on activation of ARE-driven luciferase activities [6]: do not completely abolish; effect of Keap1 C297S mutant on potency in activating ARE-driven luciferase activities [6]: did not affect the potency; effect on Nrf2/Keap1 complex (Keap1 IP, Nrf2 immunoblot) (Nrf2/Keap1 complex): increases the Nrf2/Keap1 complex

Source: patent publication US9139592B2, “Modulators of Nrf2 and uses thereof” (TRT PHARMA INC., priority 2010, dated 2015)
